From patent US8222218B2, “Cyclopropanated carbohydrates” (Seton Hall University, priority 2008, dated 2012)
Where two headings read alike, the source gives them in different places.

Experiments:
MES-induced seizures = assay: Maximal Electroshock Seizure (MES) test, mice; format: in vivo; conditions: mice, i.p.; for responders at 30 mg/kg / responders at 100 mg/kg / responders at 300 mg/kg: Mus musculus, ip
Source text: (§1) The MES test is a model for generalized tonic-clonic seizures. The seizures are highly reproducible and electrophysiologically consistent with human seizures. The test provides information about a compound's ability to prevent the spread of seizure when all neuronal circuits of the brain are maximally active. 60 Hz of alternating current (50 mA in mice, 150 mA in rats) is applied for 2 seconds via corneal electrodes that have been treated with an electrolyte solution containing an anesthetic (0.5% tetracaine HCl). Mice are tested at a variety of intervals after an i.p. injection of […] solution of the test compound (commonly in a 0.5% solution of methylcellulose) at 30, 100, and 300 mg/kg doses. Rats are examined after a 30 mg/kg (per os, p.o.) dose that is applied in a volume of 0.04 mL/g. An animal is considered “protected” from MES-induced seizures upon removal of the hind limb extensor component of the seizure.
(§2) Male and female albino CF1 mice (18-25 g, Charles River, Portage, Mich.) and male albino Sprague-Dawley rats (275-300 g, kindling test; 100-150 g all other tests; Charles River, Raleigh, N.C.) were used as experimental animals.

[1] = Acute toxicity, minimal motor impairment (rotorod), mice; format: in vivo; conditions: for TOX 30 0.5 h (animals toxic/tested) / TOX 30 4 h (animals toxic/tested) / TOX 100 0.5 h (animals toxic/tested) / TOX 100 4 h (animals toxic/tested) / TOX 300 0.5 h (animals toxic/tested) / TOX 300 4 h (animals toxic/tested): mice, rotorod; for TOX 30 0.5 h (animals toxic/tested) / TOX 30 4 h (animals toxic/tested): 30 mg/kg; for TOX 100 0.5 h (animals toxic/tested) / TOX 100 4 h (animals toxic/tested): 100 mg/kg; for TOX 300 0.5 h (animals toxic/tested) / TOX 300 4 h (animals toxic/tested): 300 mg/kg
Protocol: (§3) Toxicity was measured using the minimal motor impairment test described below.
Animals are monitored for overt signs of impaired neurological or muscular function to assess a compound's toxicity. In mice, the rotorod procedure is used to disclose minimal muscular or neurological impairment. When a mouse is placed on a rotating rod (6 rpm), the animal can maintain its equilibrium for long periods of time. The animal is considered toxic if it falls off the rotating rod three times during a 1 minute period. In rats, minimal motor deficit is indicated by ataxia, which is manifested by an abnormal, uncoordinated gait.

[2] = test system: metrazole-induced clonic seizures; assay: Subcutaneous Metrazole Seizure Threshold Test (scMET), mice; format: in vivo; conditions: mice; for responders at 30 mg/kg / responders at 100 mg/kg / responders at 300 mg/kg: Mus musculus, sc
Protocol: (§4) The subcutaneous injection of metrazole, which is a convulsant, produces clonic seizures in laboratory animals. The scMET test is designed to identify compounds that raise the seizure threshold of an animal. Mice are pretreated with test compound at 30, 100, and 300 mg/kg doses in a similar manner to the MES test. Rats are treated with a 50 mg/kg dose (p.o.). At the previously determined TPE of the test compound, the dose of metrazole that will induce convulsions in 97% of animals (CD97: 85 mg/kg mice) is injected into the loose fold of the skin in the midline of the neck. The animals are placed in isolation cages to minimize stress and observed for the next 30 minutes for the presence or absence of seizures. An episode of clonic spasms (approximately 3-5 seconds) of the fore and/or hindlimbs, jaws or vibrissae is taken as the endpoint.
as §2

seizures = assay: In vivo anticonvulsant screening (MES, scMET, minimal clonic seizure), summary in words; parameters: species or system rat, mouse; conditions: summary of Table 2
Protocol: as §3, §1, §4
The minimal clonic seizure (6 Hz) test, like the MES test, is used to assess a compound's ability to protect against electrically-induced seizures. The minimal clonic (6 Hz) seizure test uses a lower frequency (6 Hz) and a longer duration of stimulation (3 seconds) than the MES test. Test compounds are pre-administered to mice via i.p. injection. At varying times, individual mice (four per time point) are challenged with sufficient current via corneal electrodes to elicit a psychomotor seizure in 97% of animals (32 mA for 3 second). Untreated mice will display seizure characterized by a minimal clonic phase followed by stereotyped, automatistic behaviors described originally as being similar to the aura of human patients with partial seizures. Animals not displaying this behavior are considered to be protected.

[3] = 30 mg/kg, 0.5 h, read-out: MES 30 0.5 h (animals protected/tested)
[4] = 30 mg/kg, 4 h, read-out: MES 30 4 h (animals protected/tested)
[5] = 100 mg/kg, 0.5 h, read-out: MES 100 0.5 h (animals protected/tested)
[6] = 100 mg/kg, 4 h, read-out: MES 100 4 h (animals protected/tested)
[7] = 300 mg/kg, 0.5 h, read-out: MES 300 0.5 h (animals protected/tested)
[8] = 300 mg/kg, 4 h, read-out: MES 300 4 h (animals protected/tested)
[9] = 30 mg/kg, 0.4 h, read-out: scMET 30 0.4 h (animals protected/tested)
[10] = 30 mg/kg, 0.5 h, read-out: scMET 30 0.5 h (animals protected/tested)
[11] = 100 mg/kg, 0.4 h, read-out: scMET 100 0.4 h (animals protected/tested)
[12] = 100 mg/kg, 0.5 h, read-out: scMET 100 0.5 h (animals protected/tested)
[13] = 300 mg/kg, 0.4 h, read-out: scMET 300 0.4 h (animals protected/tested)
[14] = 300 mg/kg, 0.5 h, read-out: scMET 300 0.5 h (animals protected/tested)

With CCOC(=O)C1[C@@H]2[C@@H](O)[C@@H]3O[C@H](c4ccc(C(C)C)cc4)OC[C@H]3O[C@H]12 (stereo partly drawn) [Compound 20b, Ethyl (2R,4aR,5aS,6aR,7R,7aS)-7-hydroxy-2-[4-(propan-2-yl)phenyl]hexahydro-4H-cyclopropa[5.6]pyrano[3,2-d][1,3]dioxine-6-carboxylate] the “MES 30 0.5 h (animals protected/tested)” value (MES-induced seizures; 30 mg/kg, 0.5 h) was 1/5, the “MES 30 4 h (animals protected/tested)” value (MES-induced seizures; 30 mg/kg, 4 h) was 0/1 and the “MES 100 0.5 h (animals protected/tested)” value (MES-induced seizures; 100 mg/kg, 0.5 h) was 0/7. For the same compound, the “MES 100 4 h (animals protected/tested)” value (MES-induced seizures; 100 mg/kg, 4 h) was 0/3, the “MES 300 0.5 h (animals protected/tested)” value (MES-induced seizures; 300 mg/kg, 0.5 h) was 0/1 and the “MES 300 4 h (animals protected/tested)” value (MES-induced seizures; 300 mg/kg, 4 h) was 0/1. For the same compound, the “minimal motor impairment” value ([1]; at same time point / dose as observed activity) was “minimal motor impairment at the same time point”, the “TOX 30 0.5 h (animals toxic/tested)” value [1] was 1/4 and the “TOX 30 4 h (animals toxic/tested)” value [1] was 0/2. For the same compound, the “TOX 100 0.5 h (animals toxic/tested)” value [1] was 0/8, the “TOX 100 4 h (animals toxic/tested)” value [1] was 0/4 and the “TOX 300 0.5 h (animals toxic/tested)” value [1] was 0/4. For the same compound, the “TOX 300 4 h (animals toxic/tested)” value [1] was 0/2, the “scMET 30 0.4 h (animals protected/tested)” value ([2]; 30 mg/kg, 0.4 h) was 0/1 and the “scMET 30 0.5 h (animals protected/tested)” value ([2]; 30 mg/kg, 0.5 h) was 0/1. For the same compound, the “scMET 100 0.4 h (animals protected/tested)” value ([2]; 100 mg/kg, 0.4 h) was 0/1, the “scMET 100 0.5 h (animals protected/tested)” value ([2]; 100 mg/kg, 0.5 h) was 0/1 and the “scMET 300 0.4 h (animals protected/tested)” value ([2]; 300 mg/kg, 0.4 h) was 0/1. The “scMET 300 0.5 h (animals protected/tested)” value ([2]; 300 mg/kg, 0.5 h) was 0/1 and the “anticonvulsant activity” value (seizures) was “showed activity”.

For CCOC(=O)C1[C@@H]2[C@@H](O)[C@@H]3O[C@H](c4ccccc4)OC[C@H]3O[C@H]12 (stereo partly drawn) [Compound 20a, Ethyl (2R,4aR,5aS,6aR,7R,7aS)-7-hydroxy-2-phenylhexahydro-4H-cyclopropa[5,6]pyrano[3,2-d][1,3]dioxine-6-carboxylate], the responders at 30 mg/kg (MES-induced seizures; [3]) was 0%, the responders at 30 mg/kg (MES-induced seizures; [4]) was 0% and the responders at 100 mg/kg (MES-induced seizures; [5]) was 0%. For the same compound, the responders at 100 mg/kg (MES-induced seizures; [6]) was 0%, the responders at 300 mg/kg (MES-induced seizures; [7]) was 0% and the responders at 300 mg/kg (MES-induced seizures; [8]) was 0%. The “TOX 30 0.5 h (animals toxic/tested)” value [1] was 0/4, the “TOX 30 4 h (animals toxic/tested)” value [1] was 0/2 and the “TOX 100 0.5 h (animals toxic/tested)” value [1] was 0/8. For the same compound, the “TOX 100 4 h (animals toxic/tested)” value [1] was 0/4, the “TOX 300 0.5 h (animals toxic/tested)” value [1] was 0/4 and the “TOX 300 4 h (animals toxic/tested)” value [1] was 0/2. The responders at 30 mg/kg [2, 9] was 0%, the responders at 30 mg/kg [2, 10] was 0% and the responders at 100 mg/kg [2, 11] was 0%. For the same compound, the responders at 100 mg/kg [2, 12] was 0%, the responders at 300 mg/kg [2, 13] was 0% and the responders at 300 mg/kg [2, 14] was 0%.

CCOC(=O)C1[C@@H]2[C@@H](OC)[C@@H]3O[C@H](c4ccc(OC)cc4)OC[C@H]3O[C@H]12 (stereo partly drawn) [Compound 18, Ethyl (2R,4aR,5aS,6aS,7R,7aS)-7-methoxy-2-(4-methoxyphenyl)hexahydro-4H-cyclopropa[5,6]pyrano[3,2-d][1,3]dioxine-6-carboxylate] showed a responders at 30 mg/kg (MES-induced seizures; [3]) of 0%, a responders at 30 mg/kg (MES-induced seizures; [4]) of 0% and a responders at 100 mg/kg (MES-induced seizures; [5]) of 0%. It also gave a responders at 100 mg/kg (MES-induced seizures; [6]) of 0%, a responders at 300 mg/kg (MES-induced seizures; [7]) of 0% and a responders at 300 mg/kg (MES-induced seizures; [8]) of 0%. For the same compound, the “TOX 30 0.5 h (animals toxic/tested)” value [1] was 0/4, the “TOX 30 4 h (animals toxic/tested)” value [1] was 0/2 and the “TOX 100 0.5 h (animals toxic/tested)” value [1] was 0/8. The “TOX 100 4 h (animals toxic/tested)” value [1] was 0/4, the “TOX 300 0.5 h (animals toxic/tested)” value [1] was 0/4 and the “TOX 300 4 h (animals toxic/tested)” value [1] was 0/2. For the same compound, the responders at 30 mg/kg [2, 9] was 0%, the responders at 30 mg/kg [2, 10] was 0% and the responders at 100 mg/kg [2, 11] was 0%. It also gave a responders at 100 mg/kg [2, 12] of 0%, a responders at 300 mg/kg [2, 13] of 0% and a responders at 300 mg/kg [2, 14] of 0%.

Compound CCOC(=O)C1[C@@H]2[C@@H](OS(N)(=O)=O)[C@@H]3OC(C)(C)OC[C@H]3O[C@H]12 (stereo partly drawn) [Compound 8b, ethyl (4aR,5aS,6aS,7R,7aR)-2,2-dimethyl-7-(sulfamoyloxy)hexahydro-4H-cyclopropa[5,6]pyrano[3,2-d][1,3]dioxine-6-carboxylate] has a responders at 30 mg/kg (MES-induced seizures; [3]) of 0%, a responders at 30 mg/kg (MES-induced seizures; [4]) of 0% and a responders at 100 mg/kg (MES-induced seizures; [5]) of 0%. The responders at 100 mg/kg (MES-induced seizures; [6]) was 0%, the responders at 300 mg/kg (MES-induced seizures; [7]) was 0% and the responders at 300 mg/kg (MES-induced seizures; [8]) was 0%. The “TOX 30 0.5 h (animals toxic/tested)” value [1] was 0/4, the “TOX 30 4 h (animals toxic/tested)” value [1] was 0/2 and the “TOX 100 0.5 h (animals toxic/tested)” value [1] was 1/8. The “TOX 100 4 h (animals toxic/tested)” value [1] was 0/4, the “TOX 300 0.5 h (animals toxic/tested)” value [1] was 1/4 and the “TOX 300 4 h (animals toxic/tested)” value [1] was 0/2. For the same compound, the responders at 30 mg/kg [2, 9] was 0%, the responders at 30 mg/kg [2, 10] was 0% and the responders at 100 mg/kg [2, 11] was 0%. The responders at 100 mg/kg [2, 12] was 0%, the responders at 300 mg/kg [2, 13] was 0% and the responders at 300 mg/kg [2, 14] was 0%.
